According to patent publication US12084459B2, “2-(4-{1-[6-(4-isopropyl-phenyl)-imidazo[2,1-b][1,3,4]thiadiazol-2-yl]-piperidin-4-ylmethyl}-piperazin-1-yl)-ethanol and use thereof” (Urifer Ltd., priority 2020, dated 2024):

Experiment: toxicity in mice: body weight and observations after IP administration
Format: in vivo
Conditions: for body weight / body weight change (% wt/wt): female mice
In short: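 Mice (female where stated) received the test compound intraperitoneally on day 1, dissolved in 20% hydroxypropylcyclodextrane at an administration volume of 10 ml/kg. Toxicity was assessed from body weight, body weight change (% wt/wt) and observations of the animals after administration.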

CC(C)c1ccc(-c2cn3nc(N4CCC(CN5CCN(CCO)CC5)CC4)sc3n2)cc1 [Compound E266, 2-(4-{1-[6-(4-isopropyl-phenyl)-imidazo[2,1-b][1,3,4]thiadiazol-2-yl]-piperidin-4-ylmethyl}-piperazin-1-yl)-ethanol]
body weight (100 mg/kg IP, day 1): 36.1 g | body weight change (% wt/wt) (100 mg/kg IP, day 1): 0% | body weight (100 mg/kg IP, day 2): 35.7 g | body weight change (% wt/wt) (100 mg/kg IP, day 2): −1.1% | body weight (100 mg/kg IP, day 3): 36.1 g | body weight change (% wt/wt) (100 mg/kg IP, day 3): 0.0% | body weight (100 mg/kg IP, day 4): 35.2 g | body weight change (% wt/wt) (100 mg/kg IP, day 4): −2.5% | body weight (100 mg/kg IP, day 5): 34 g | body weight change (% wt/wt) (100 mg/kg IP, day 5): −5.8% | body weight (100 mg/kg IP, day 6): 33.9 g | body weight change (% wt/wt) (100 mg/kg IP, day 6): −6.1% | body weight (100 mg/kg IP, day 7): 34 g | body weight change (% wt/wt) (100 mg/kg IP, day 7): −5.8% | body weight (100 mg/kg IP, day 8): 33.6 g | body weight change (% wt/wt) (100 mg/kg IP, day 8): −6.9% | body weight (100 mg/kg IP, day 9): 32.4 g | body weight change (% wt/wt) (100 mg/kg IP, day 9): −10.2% | body weight (100 mg/kg IP, day 10): 33.5 g | body weight change (% wt/wt) (100 mg/kg IP, day 10): −7.2% | body weight (100 mg/kg IP, day 11): 32.6 g | body weight change (% wt/wt) (100 mg/kg IP, day 11): −9.7% | body weight (100 mg/kg IP, day 12): 33.4 g | body weight change (% wt/wt) (100 mg/kg IP, day 12): −7.5% | body weight (100 mg/kg IP, day 13): 32.8 g | body weight change (% wt/wt) (100 mg/kg IP, day 13): −9.1% | body weight (100 mg/kg IP, day 14): 32.2 g | body weight change (% wt/wt) (100 mg/kg IP, day 14): −10.8% | body weight (100 mg/kg IP, day 15): 32.4 g | body weight change (% wt/wt) (100 mg/kg IP, day 15): −10.2% | body weight (200 mg/kg IP, day 1): 31.5 g | body weight change (% wt/wt) (200 mg/kg IP, day 1): 0% | body weight (200 mg/kg IP, day 2): 30.5 g | body weight change (% wt/wt) (200 mg/kg IP, day 2): −3.2% | body weight (200 mg/kg IP, day 3): 30.8 g | body weight change (% wt/wt) (200 mg/kg IP, day 3): −2.2% | body weight (200 mg/kg IP, day 4): 30.6 g | body weight change (% wt/wt) (200 mg/kg IP, day 4): −2.9% | body weight (200 mg/kg IP, day 5): 30.6 g | body weight change (% wt/wt) (200 mg/kg IP, day 5): −2.9% | body weight (200 mg/kg IP, day 6): 30.9 g | body weight change (% wt/wt) (200 mg/kg IP, day 6): −1.9% | body weight (200 mg/kg IP, day 7): 31 g | body weight change (% wt/wt) (200 mg/kg IP, day 7): −1.6% | body weight (200 mg/kg IP, day 8): 31.1 g | body weight change (% wt/wt) (200 mg/kg IP, day 8): −1.3% | body weight (200 mg/kg IP, day 9): 30.6 g | body weight change (% wt/wt) (200 mg/kg IP, day 9): −2.9% | body weight (200 mg/kg IP, day 10): 31.2 g | body weight change (% wt/wt) (200 mg/kg IP, day 10): −1.0% | body weight (200 mg/kg IP, day 11): 29.9 g | body weight change (% wt/wt) (200 mg/kg IP, day 11): −5.1% | body weight (200 mg/kg IP, day 12): 30.6 g | body weight change (% wt/wt) (200 mg/kg IP, day 12): −2.9% | body weight (200 mg/kg IP, day 13): 30.6 g | body weight change (% wt/wt) (200 mg/kg IP, day 13): −2.9% | body weight (200 mg/kg IP, day 14): 30.8 g | body weight change (% wt/wt) (200 mg/kg IP, day 14): −2.2% | body weight (200 mg/kg IP, day 15): 30.5 g | body weight change (% wt/wt) (200 mg/kg IP, day 15): −3.2% | body weight (400 mg/kg IP, day 1): 31.1 g | body weight change (% wt/wt) (400 mg/kg IP, day 1): 0% | body weight (400 mg/kg IP, day 2): 30.5 g | body weight change (% wt/wt) (400 mg/kg IP, day 2): −1.9% | body weight (400 mg/kg IP, day 3): 29.6 g | body weight change (% wt/wt) (400 mg/kg IP, day 3): −4.8% | body weight (400 mg/kg IP, day 4): 28.6 g | body weight change (% wt/wt) (400 mg/kg IP, day 4): −8.0% | body weight (400 mg/kg IP, day 5): 28.4 g | body weight change (% wt/wt) (400 mg/kg IP, day 5): −8.7% | body weight (400 mg/kg IP, day 6): 28.5 g | body weight change (% wt/wt) (400 mg/kg IP, day 6): −8.4% | body weight (400 mg/kg IP, day 7): 28.4 g | body weight change (% wt/wt) (400 mg/kg IP, day 7): −8.7% | body weight (400 mg/kg IP, day 8): 28.7 g | body weight change (% wt/wt) (400 mg/kg IP, day 8): −7.7% | body weight (400 mg/kg IP, day 9): 29 g | body weight change (% wt/wt) (400 mg/kg IP, day 9): −6.8% | body weight (400 mg/kg IP, day 10): 29.3 g | body weight change (% wt/wt) (400 mg/kg IP, day 10): −5.8% | body weight (400 mg/kg IP, day 11): 29 g | body weight change (% wt/wt) (400 mg/kg IP, day 11): −6.8% | body weight (400 mg/kg IP, day 12): 29.4 g | body weight change (% wt/wt) (400 mg/kg IP, day 12): −5.5% | body weight (400 mg/kg IP, day 13): 29.8 g | body weight change (% wt/wt) (400 mg/kg IP, day 13): −4.2% | body weight (400 mg/kg IP, day 14): 29.8 g | body weight change (% wt/wt) (400 mg/kg IP, day 14): 4.2% | body weight (400 mg/kg IP, day 15): 29.2 g | body weight change (% wt/wt) (400 mg/kg IP, day 15): −6.1% | toxicity (male and female mice, 100-400 mg/kg IP in 20% hydroxypropylcyclodextrane, 10 ml/kg): not toxic
